Experimental data reported in publication PMC7734798 (ACS Medicinal Chemistry Letters, 2020).
Several values for one entry are separate records, joined by “and”; a condition that tells them apart may be missing. Identical values can stand only once. Like-named read-outs stand apart in the source and are kept apart here.

How the values were obtained:
[1] = tested on: primary rat cerebellar granule neurons (CGNs); details: for cell survival/death in CGNs, % mean ± SE of controls (MTT): 24 h treatment
[2] = tested on: human liver carcinoma immortalized cell line (HepG2); details: 24 h treatment
[3] = tested on: Olig2; test: Oli-Neu proliferation marker Olig2 expression (Western blot); type: cell-based, mouse; details: Oli-Neu cells, 5 μM, 48 h
Source text: (§1) OPC proliferation and migration to the CNS injury site as well as their differentiation are critical steps toward remyelination in MS. HDAC activity plays a crucial role in OPC proliferation/differentiation; therefore, HDAC modulation is widely considered a promising therapeutic target for MS.[30] […] Therefore, we tested the effect of our compounds on OPC proliferation and differentiation, through cell counting, measure of filaments, and analysis of proliferation/differentiation markers (Figure 7).
(§2) Oli-Neu cells were grown in SATO medium (DMEM medium, 2 mM glutamine, 10 μg/ml insulin, 5.5 μg/ml transferrin, 38.72 nM sodium selenite, 100 µM putrescine, 520 nM L-thyroxine (T4), 500 nM triiodo-L-thyronine (T3), 200 nM progesterone, 25 μg/ml of gentamycin) supplemented with 1% heat-inactivated horse serum (HS) in a humidified, 5% CO2 incubator at 37°C. Cell culture medium and all chemicals were from Sigma-Aldrich, except for insulin-transferrin-sodium selenite 100X supplement (Life Technologies Corporation). Cells were plated on 96 well plates, previously coated with 10 μg/mL poly-L-lysine (Sigma-Aldrich; 10 μg/ml) at the density of 2.5 x 10 4/0.2 mL medium/well and treated with increasing concentrations of the compounds (0.5, 1, 5 and 10 μM).
After 24 hours, the viability was evaluated through the MTT assay.
(§3) Oli-Neu cells proliferation and differentiation assay
(§4) 48 hours, for cell counting and measure of filaments, 5 random images for each condition were acquired with an Eclipse TS100 (Nikon) microscope using a 10X objective. Cells number and filament length were measured with Fiji ImageJ2 software. After 48 hours for proliferation and 72 hours of treatment for differentiation analysis, cells were lysed in ice-cold lysis buffer (50 mM Tris-HCl pH 7.4, 1% SDS, 0.05% protease inhibitor cocktail; all from Sigma-Aldrich) and protein content was determined by using the Lowry method. […]

[4] = tested on: Oli-Neu cells; test: Oli-Neu cell proliferation and differentiation assay: cell counting and measure of filaments; type: cell-based, mouse; details: 5 μM, 48 h
Source text: as §1
as §2, with “μM). […]” for “μM).”
as §3
48 hours, for cell counting and measure of filaments, 5 random images for each condition were acquired with an Eclipse TS100 (Nikon) microscope using a 10X objective. Cells number and filament length were measured with Fiji ImageJ2 software. […]

[5] = tested on: CNPase; test: Oli-Neu differentiation marker CNPase expression (Western blot); type: cell-based, mouse; details: Oli-Neu cells, 5 μM, 72 h
Source text: as §1, with “7). […]” for “7).”
After 24 hours, the viability was evaluated through the MTT assay. […]
as §4

[6] = PAMPA-BBB permeation assay; details: PAMPA-BBB prediction
[7] = PAMPA

Compound | cell survival/death in CGNs, % mean ± SE of controls (MTT) ([1]; 5 μM) | cell survival/death in CGNs, % mean ± SE of controls (MTT) ([1]; 10 μM) | cell survival/death in CGNs, % mean ± SE of controls (MTT) ([1]; 25 μM) | cell survival/death in CGNs, % mean ± SE of controls (MTT) ([1]; 50 μM) | cell survival/death in HepG2 cells, % mean ± SE of controls (MTT) ([2]; 5 μM) | cell survival/death in HepG2 cells, % mean ± SE of controls (MTT) ([2]; 10 μM) | cell survival/death in HepG2 cells, % mean ± SE of controls (MTT) ([2]; 25 μM) | cell survival/death in HepG2 cells, % mean ± SE of controls (MTT) ([2]; 50 μM) | also measured
CC/C=C\C/C=C\C/C=C\CCCCCCCC(=O)O [ALA, α-linolenic acid, reference compound] | 93 ± 13% | 97 ± 3% | 79 ± 12% | 45% and 45 ± 5 ^b % | 109 ± 17% | 90 ± 5% | 91 ± 13% | 92 ± 9% | 
CCCC(CCC)C(=O)O [VPA, valproic acid, reference compound] |  |  |  |  |  |  |  |  | neurotoxicity profile in CGNs (in words) ([1]; 5-50 μM, 24 h): negligible neurotoxicity; expression of Olig2, marker of OPCs proliferation [3]: marked decrease; Oli-Neu cell number [4]: decrease cell number; Oli-Neu filament length [4]: parallel increase in filament length; expression of CNPase, marker of differentiation [5]: significant increase
CC/C=C\C/C=C\C/C=C\CCCCCCCC(=O)OCCNC(=O)C(CCC)CCC [compound 3] | 119 ± 17% | 116 ± 3% | 99 ± 17% | 41% and 41 ± 6 ^b % | 86 ± 10% | 92 ± 3% | 84 ± 10% | 75 ± 13% | 
CC/C=C\C/C=C\C/C=C\CCCCCCCC(=O)OCCOC(=O)C(CCC)CCC [compound 4] | 118 ± 16% | 114 ± 3% | 71 ± 8% | 45% and 45 ± 8 ^b % | 95 ± 14% | 99 ± 5% | 75 ± 12% | 74 ± 12% | 
CNC(=C[N+](=O)[O-])NCCSCc1ccc(CN(C)C)o1 [ranitidine, reference compound] |  |  |  |  |  |  |  |  | BBB penetration estimation, CNS (+/−) [6]: CNS –
Nc1c2c(nc3ccccc13)CCCC2 [tacrine] |  |  |  |  |  |  |  |  | BBB penetration estimation, CNS (+/−) [7]: CNS +
